Broadly, the pKi is the negative decadic logarithm of the Ki, by convention in mol/L. One may read the inhibition as the change of the read-out against control, counted positive when it falls. As usually defined, the IC50 is the point on the concentration scale where inhibition reaches its midpoint. A high value points to lower potency.

pKi: −log10 of the molar value.

Experimental findings from ChEMBL document CHEMBL4507317, “Data for DCP probe BAY-899” (2021) are described below.

Assay [1] has as its system Epidermal growth factor receptor (Homo sapiens), P00533 [UNDEFINED MUTATION]. To be noted: Compound concentration 1000.0 nM.
Assay [2] addresses 5-hydroxytryptamine receptor 2A (Homo sapiens, UniProt P28223). Nature of the assay: GPCRScan assay: inhibition of 5-HT2A. More on the design: radioligand conc. used [nm] 1.2 – 2.4, parental cells HEKT.
For assay [3], the target named is Muscarinic acetylcholine receptor M3 (Homo sapiens) (UniProt P20309). The conditions noted are these: Compound concentration 10.0 uM.
Assay [4] has as its target Beta-3 adrenergic receptor (Homo sapiens) (UniProt P13945). To be noted: Compound concentration 10.0 uM.
Assay [5] deals with Serine/threonine-protein kinase Nek3 (Homo sapiens) (UniProt P51956). To be noted: Compound concentration 1000.0 nM.
Assay [6] has as its target 5-hydroxytryptamine receptor 5A (Homo sapiens) (UniProt P47898). The conditions noted are these: Compound concentration 10.0 uM.
Assay [7] concerns the target Mitogen-activated protein kinase kinase kinase 6 (Homo sapiens) (UniProt O95382). To be noted: Compound concentration 1000.0 nM.
The target in assay [8] is Delta-type opioid receptor (Homo sapiens) (UniProt P41143). To be noted: Compound concentration 10.0 uM.
Assay [9] deals with Lutropin-choriogonadotropic hormone receptor (Homo sapiens, UniProt P22888). As to the kind of experiment: Cell-based assay (LH Antagonism).
In assay [10] the target is Insulin receptor (Homo sapiens) (UniProt P06213). To be noted: Compound concentration 1000.0 nM.
In assay [11] the target is Death-associated protein kinase 3 (Homo sapiens) (UniProt O43293). To be noted: Compound concentration 1000.0 nM.
The target in assay [12] is P2Y purinoceptor 2 (Homo sapiens) (UniProt P41231). As to the kind of experiment: P2Y2 Eurofins Bayer panel. The conditions noted are these: Compound concentration 10.0 uM.
Assay [13] addresses Adenosine receptor A3 (Homo sapiens) (UniProt P0DMS8). Nature of the assay: A3 Eurofins Bayer panel. To be noted: Compound concentration 10.0 uM.
Assay [14] concerns the target Beta-1 adrenergic receptor (Homo sapiens) (UniProt P08588). As to the kind of experiment: beta 1 Eurofins Bayer panel. The conditions noted are these: Compound concentration 10.0 uM.
The target in assay [15] is D(2) dopamine receptor (Homo sapiens) (UniProt P14416). Nature of the assay: D2L Eurofins Bayer panel. To be noted: Compound concentration 10.0 uM.
For assay [16], the target named is Adenosine receptor A2b (Homo sapiens) (UniProt P29275). As to the kind of experiment: A2B Eurofins Bayer panel. To be noted: Compound concentration 10.0 uM.
Assay [17] deals with 5-hydroxytryptamine receptor 2B (Homo sapiens, UniProt P41595). Nature of the assay: 5-HT2B Eurofins Bayer panel. To be noted: Compound concentration 10.0 uM.
The target of assay [18] is Substance-P receptor (Homo sapiens) (UniProt P25103). Nature of the assay: NK1 Eurofins Bayer panel. The conditions noted are these: Compound concentration 10.0 uM.
The test system of assay [19] is Receptor-type tyrosine-protein kinase FLT3 (Homo sapiens), P36888 [K663Q]. To be noted: Compound concentration 1000.0 nM.
The target in assay [20] is Histamine H1 receptor (Homo sapiens) (UniProt P35367). Nature of the assay: H1 Eurofins Bayer panel. To be noted: Compound concentration 10.0 uM.
Assay [21] has as its target T1, Alpha-2A adrenergic receptor (Homo sapiens) (UniProt P08913).
T1 sequence (whole entry): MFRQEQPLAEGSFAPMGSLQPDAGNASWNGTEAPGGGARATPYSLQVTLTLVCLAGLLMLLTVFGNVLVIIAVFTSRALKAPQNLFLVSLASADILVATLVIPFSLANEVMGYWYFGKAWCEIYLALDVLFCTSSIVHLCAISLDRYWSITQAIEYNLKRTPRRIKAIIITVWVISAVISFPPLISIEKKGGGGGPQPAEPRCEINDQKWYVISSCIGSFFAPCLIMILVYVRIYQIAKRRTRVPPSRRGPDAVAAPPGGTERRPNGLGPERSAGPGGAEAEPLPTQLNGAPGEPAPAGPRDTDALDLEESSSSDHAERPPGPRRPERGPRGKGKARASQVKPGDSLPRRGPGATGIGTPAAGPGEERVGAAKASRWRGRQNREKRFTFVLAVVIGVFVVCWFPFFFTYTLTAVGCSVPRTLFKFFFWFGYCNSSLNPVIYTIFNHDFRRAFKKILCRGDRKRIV
Nature of the assay: alpha 2A Eurofins Bayer panel. To be noted: Compound concentration 10.0 uM.

The target in assay [22] is T2, Muscarinic acetylcholine receptor M4 (Homo sapiens) (UniProt P08173).
T2 sequence (whole entry): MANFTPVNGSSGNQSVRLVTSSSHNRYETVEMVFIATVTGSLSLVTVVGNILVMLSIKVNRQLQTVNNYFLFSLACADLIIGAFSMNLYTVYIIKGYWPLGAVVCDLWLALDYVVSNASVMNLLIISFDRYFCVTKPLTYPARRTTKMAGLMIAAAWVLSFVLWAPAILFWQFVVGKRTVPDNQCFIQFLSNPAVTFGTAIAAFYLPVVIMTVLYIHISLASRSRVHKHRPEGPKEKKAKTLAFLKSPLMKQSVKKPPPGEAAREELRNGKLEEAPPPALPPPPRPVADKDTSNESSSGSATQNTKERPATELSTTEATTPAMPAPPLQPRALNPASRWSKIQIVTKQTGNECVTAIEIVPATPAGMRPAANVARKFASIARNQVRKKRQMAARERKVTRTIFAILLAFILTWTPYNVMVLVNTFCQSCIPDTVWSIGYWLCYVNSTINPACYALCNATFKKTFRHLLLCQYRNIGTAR
Nature of the assay: M4 Eurofins Bayer panel. To be noted: Compound concentration 10.0 uM.

For assay [23], the target named is Beta-2 adrenergic receptor (Homo sapiens) (UniProt P07550). Nature of the assay: beta 2 Eurofins Bayer panel. The conditions noted are these: Compound concentration 10.0 uM.
Assay [24] deals with Melanocortin receptor 4 (Homo sapiens) (UniProt P32245). Nature of the assay: MC4 Eurofins Bayer panel. To be noted: Compound concentration 10.0 uM.
Assay [25] has as its target T3, 5-hydroxytryptamine receptor 1A (Homo sapiens) (UniProt P08908).
T3 sequence (whole entry): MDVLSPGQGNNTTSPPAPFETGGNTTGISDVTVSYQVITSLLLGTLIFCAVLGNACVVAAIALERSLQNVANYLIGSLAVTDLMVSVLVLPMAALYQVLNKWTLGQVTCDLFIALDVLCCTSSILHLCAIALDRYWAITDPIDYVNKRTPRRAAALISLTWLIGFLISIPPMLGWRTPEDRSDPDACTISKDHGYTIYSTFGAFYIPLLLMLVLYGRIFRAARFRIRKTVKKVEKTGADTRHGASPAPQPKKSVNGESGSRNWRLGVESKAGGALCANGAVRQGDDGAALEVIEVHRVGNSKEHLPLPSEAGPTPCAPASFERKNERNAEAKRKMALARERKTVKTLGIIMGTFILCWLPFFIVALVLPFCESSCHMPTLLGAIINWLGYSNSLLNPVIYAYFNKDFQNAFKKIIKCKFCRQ
As to the kind of experiment: 5-HT1A Eurofins Bayer panel. The conditions noted are these: Compound concentration 10.0 uM.

Assay [26] has as its target Histamine H2 receptor (Homo sapiens) (UniProt P25021). As to the kind of experiment: H2 Eurofins Bayer panel. To be noted: Compound concentration 10.0 uM.
Assay [27] has as its target Histamine H3 receptor (Homo sapiens) (UniProt Q9Y5N1). As to the kind of experiment: H3 Eurofins Bayer panel. To be noted: Compound concentration 10.0 uM.

Chain of Melanocortin receptor 4 (Homo sapiens) (P32245 whole entry): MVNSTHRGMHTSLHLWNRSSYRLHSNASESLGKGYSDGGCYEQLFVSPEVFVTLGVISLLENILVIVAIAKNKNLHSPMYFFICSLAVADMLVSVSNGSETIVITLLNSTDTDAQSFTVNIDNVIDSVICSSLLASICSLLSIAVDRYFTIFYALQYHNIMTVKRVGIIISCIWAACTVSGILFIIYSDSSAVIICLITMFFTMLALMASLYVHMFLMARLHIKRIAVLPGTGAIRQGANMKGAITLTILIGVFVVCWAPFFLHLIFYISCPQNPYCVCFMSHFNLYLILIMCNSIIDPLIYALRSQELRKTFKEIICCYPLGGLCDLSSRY
Chain of Mitogen-activated protein kinase kinase kinase 6 (Homo sapiens) (O95382 whole entry): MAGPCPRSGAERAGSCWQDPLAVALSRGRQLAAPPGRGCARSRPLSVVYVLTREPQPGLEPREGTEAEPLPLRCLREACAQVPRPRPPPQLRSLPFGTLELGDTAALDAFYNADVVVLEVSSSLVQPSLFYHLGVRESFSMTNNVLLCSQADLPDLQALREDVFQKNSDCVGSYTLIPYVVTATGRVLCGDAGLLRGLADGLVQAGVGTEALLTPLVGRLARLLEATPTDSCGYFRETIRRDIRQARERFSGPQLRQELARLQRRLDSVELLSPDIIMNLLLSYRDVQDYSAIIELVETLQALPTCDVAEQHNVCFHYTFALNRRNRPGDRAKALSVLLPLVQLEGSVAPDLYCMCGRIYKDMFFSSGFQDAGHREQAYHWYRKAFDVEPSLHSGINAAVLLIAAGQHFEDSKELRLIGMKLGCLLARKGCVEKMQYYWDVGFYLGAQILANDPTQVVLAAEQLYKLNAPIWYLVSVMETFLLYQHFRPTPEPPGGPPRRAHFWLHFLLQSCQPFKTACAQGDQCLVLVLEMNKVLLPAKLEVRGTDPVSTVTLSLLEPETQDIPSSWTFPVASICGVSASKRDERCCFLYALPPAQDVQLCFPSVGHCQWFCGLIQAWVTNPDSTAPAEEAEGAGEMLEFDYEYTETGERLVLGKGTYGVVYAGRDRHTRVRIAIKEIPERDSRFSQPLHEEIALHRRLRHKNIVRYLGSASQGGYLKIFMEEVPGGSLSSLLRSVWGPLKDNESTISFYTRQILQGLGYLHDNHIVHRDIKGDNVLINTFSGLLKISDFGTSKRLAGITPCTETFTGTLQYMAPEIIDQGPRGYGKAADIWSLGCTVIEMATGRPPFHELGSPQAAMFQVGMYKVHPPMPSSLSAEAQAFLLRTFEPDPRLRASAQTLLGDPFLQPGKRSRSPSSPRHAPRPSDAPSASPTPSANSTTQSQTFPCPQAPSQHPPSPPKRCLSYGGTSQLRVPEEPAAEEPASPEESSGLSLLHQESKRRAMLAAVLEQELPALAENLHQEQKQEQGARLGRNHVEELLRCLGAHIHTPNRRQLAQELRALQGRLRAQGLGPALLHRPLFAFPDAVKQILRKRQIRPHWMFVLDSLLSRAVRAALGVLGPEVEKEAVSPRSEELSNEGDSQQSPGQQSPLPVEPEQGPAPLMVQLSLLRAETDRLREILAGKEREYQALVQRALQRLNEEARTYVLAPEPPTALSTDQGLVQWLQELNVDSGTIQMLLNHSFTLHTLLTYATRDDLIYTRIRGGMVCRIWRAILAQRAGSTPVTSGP
Chain of Adenosine receptor A2b (Homo sapiens) (P29275 whole entry): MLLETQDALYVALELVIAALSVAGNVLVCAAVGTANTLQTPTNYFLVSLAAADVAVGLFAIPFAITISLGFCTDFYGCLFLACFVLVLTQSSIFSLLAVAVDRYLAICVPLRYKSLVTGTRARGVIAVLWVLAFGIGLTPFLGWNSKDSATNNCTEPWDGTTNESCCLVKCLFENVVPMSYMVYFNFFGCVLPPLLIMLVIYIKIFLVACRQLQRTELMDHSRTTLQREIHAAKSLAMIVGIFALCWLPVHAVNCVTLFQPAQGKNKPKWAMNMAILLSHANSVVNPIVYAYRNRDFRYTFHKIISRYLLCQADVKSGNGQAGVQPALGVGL
Chain of P2Y purinoceptor 2 (Homo sapiens) (P41231 whole entry): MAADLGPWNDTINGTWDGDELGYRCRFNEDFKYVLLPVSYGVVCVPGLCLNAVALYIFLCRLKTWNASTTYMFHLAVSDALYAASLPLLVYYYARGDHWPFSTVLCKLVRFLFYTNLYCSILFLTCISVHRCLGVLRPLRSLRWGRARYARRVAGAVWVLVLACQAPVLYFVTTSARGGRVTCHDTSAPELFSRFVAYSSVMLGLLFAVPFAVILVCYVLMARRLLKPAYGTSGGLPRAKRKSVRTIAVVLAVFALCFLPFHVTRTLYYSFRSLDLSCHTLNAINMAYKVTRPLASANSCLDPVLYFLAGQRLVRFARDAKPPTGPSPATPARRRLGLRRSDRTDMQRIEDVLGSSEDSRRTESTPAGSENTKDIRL
Chain of Adenosine receptor A3 (Homo sapiens) (P0DMS8 whole entry): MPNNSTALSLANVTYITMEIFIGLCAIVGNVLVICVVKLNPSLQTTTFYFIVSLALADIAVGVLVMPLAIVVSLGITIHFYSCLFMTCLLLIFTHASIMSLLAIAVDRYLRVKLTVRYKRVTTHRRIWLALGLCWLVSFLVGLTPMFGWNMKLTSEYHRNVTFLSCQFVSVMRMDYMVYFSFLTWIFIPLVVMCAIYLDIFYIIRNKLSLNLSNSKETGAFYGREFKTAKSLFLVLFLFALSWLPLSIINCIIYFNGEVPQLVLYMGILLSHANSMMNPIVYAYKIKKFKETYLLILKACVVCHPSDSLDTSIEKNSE
Chain of Death-associated protein kinase 3 (Homo sapiens) (O43293 whole entry, looked up): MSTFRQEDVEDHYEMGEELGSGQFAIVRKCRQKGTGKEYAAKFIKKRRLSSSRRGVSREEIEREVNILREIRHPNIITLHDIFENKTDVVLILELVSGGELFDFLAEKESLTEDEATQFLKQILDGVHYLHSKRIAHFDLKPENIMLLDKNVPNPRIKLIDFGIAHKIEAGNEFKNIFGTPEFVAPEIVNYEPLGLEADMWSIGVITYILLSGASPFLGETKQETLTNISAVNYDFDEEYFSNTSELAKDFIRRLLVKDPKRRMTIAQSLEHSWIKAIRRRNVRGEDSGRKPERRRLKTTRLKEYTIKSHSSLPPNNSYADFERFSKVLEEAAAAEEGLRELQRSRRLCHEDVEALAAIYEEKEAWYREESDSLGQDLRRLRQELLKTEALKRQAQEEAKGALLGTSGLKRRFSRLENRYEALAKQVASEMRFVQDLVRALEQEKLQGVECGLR
Chain of Insulin receptor (Homo sapiens) (P06213 28-758 limits assumed): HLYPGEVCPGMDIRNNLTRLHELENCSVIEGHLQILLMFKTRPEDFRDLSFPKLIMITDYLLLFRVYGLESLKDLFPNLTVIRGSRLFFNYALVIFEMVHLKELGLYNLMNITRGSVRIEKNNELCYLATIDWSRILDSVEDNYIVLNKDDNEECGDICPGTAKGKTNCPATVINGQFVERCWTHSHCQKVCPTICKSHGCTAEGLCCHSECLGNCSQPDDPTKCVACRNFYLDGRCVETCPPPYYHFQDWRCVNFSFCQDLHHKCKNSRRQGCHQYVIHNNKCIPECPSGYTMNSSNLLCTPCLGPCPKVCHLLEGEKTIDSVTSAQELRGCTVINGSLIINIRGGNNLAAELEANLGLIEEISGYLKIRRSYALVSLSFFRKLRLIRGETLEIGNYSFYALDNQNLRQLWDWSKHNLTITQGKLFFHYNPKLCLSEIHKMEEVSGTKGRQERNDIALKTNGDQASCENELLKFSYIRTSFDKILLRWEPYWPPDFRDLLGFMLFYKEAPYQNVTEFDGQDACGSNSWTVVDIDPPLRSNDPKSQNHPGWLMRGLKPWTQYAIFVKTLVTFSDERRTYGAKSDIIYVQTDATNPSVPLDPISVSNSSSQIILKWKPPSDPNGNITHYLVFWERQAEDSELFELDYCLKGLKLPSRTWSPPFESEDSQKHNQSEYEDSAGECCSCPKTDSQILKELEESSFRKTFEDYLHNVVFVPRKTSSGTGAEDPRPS
Chain of Insulin receptor (Homo sapiens) (P06213 763-1382 limits assumed): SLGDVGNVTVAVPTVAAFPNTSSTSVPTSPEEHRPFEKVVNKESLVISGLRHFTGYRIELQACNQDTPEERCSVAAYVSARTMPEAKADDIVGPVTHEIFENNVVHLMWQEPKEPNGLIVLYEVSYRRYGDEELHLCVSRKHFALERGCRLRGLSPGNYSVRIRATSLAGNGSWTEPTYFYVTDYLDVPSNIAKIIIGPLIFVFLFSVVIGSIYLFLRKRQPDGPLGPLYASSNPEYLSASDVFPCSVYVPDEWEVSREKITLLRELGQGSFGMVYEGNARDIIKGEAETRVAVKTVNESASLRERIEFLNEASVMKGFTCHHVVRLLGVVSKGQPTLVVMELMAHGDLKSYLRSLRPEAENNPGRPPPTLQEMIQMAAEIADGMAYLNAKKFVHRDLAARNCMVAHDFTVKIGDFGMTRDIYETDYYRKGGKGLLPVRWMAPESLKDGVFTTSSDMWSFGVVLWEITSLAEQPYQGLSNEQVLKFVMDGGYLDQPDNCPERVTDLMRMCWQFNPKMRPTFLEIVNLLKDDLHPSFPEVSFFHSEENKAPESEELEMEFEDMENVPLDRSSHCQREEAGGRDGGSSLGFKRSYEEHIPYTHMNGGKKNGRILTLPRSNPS
Chain of Beta-1 adrenergic receptor (Homo sapiens) (P08588 whole entry, looked up): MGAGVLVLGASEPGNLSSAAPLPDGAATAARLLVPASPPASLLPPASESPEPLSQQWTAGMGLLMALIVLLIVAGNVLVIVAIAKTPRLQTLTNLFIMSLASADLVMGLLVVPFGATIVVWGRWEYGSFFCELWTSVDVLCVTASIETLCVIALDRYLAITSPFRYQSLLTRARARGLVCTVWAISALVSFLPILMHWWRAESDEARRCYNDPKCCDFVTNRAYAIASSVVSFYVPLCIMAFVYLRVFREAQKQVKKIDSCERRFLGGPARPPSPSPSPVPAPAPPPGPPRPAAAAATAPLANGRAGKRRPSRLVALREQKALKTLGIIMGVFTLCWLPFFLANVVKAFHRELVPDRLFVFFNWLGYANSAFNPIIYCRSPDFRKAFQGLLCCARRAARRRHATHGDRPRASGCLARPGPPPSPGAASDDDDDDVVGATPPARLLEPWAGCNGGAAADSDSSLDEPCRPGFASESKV

Regarding `O=C(Nc1ccc(Oc2ccc(F)cc2)cc1)N1CCc2ncccc2[C@H]1c1ccc(F)cc1` [BAY-897], the residual activity in assay [1] is 74%; in assay [5], 64%; in [7], 100%; in assay [10], 86%; in assay [11], 100%. In assay [2], the pKi was 5.43. Moreover, the inhibition in assay [3] was -3.47%; in assay [4], 29.4%; in assay [6], 7.18%; in [8], 32.7%. In addition, the IC50 in [9] is > 16 µM (not active).
Turning to `O=C(Nc1cnc(Oc2ccc(F)cc2)nc1)N1CCc2ncccc2[C@@H]1c1ccc(F)cc1` [BAY-899], the Activation (% of control) is -1% in [12]; 25% in assay [13]; -1% in assay [14]; -1% in [15]; -1% in [16]; 1% in assay [17]. The Activation (% of control) is -3% in assay [18]; -4% in [20]; -2% in [21]; -6% in assay [22]; -3% in [23]; -2% in [24]. Also, the Activation (% of control) in assay [25] is 1%; in [26], -2%; in [27], 38%. Moreover, the Inhibition (% of control) in [12] was 8%; in assay [13] it was -6%; in assay [14], 13%; in [15], 67%; in [16], 16%; in assay [17], 18%. Moreover, the Inhibition (% of control) is 24% in [18]; 4% in assay [20]; -16% in assay [21]; 2% in assay [22]; 26% in assay [23]; 11% in assay [24]. In addition, the Inhibition (% of control) in assay [25] is 0%; in assay [26], 34%; in [27] it was -19%. The residual activity is 100% in assay [1]; 100% in assay [19]; 67% in [5]; 94% in assay [7]; 81% in assay [10]; 100% in assay [11].
